Assay results published in US6541062B2, “Water-soluble soybean extracts” (priority 1999, dated 2003).
≈ marks a conversion by molar mass, not a printed value.

What was measured:
[1] = solubility in water (stepwise addition of water, visual inspection); type: physicochemical; conditions: 25 °C, thermodynamic from solid
Protocol: A clear water-soluble soybean-based extract (2 liters) obtained in the same manner as described in Example 1. The extract solution was then lyophilized using a lyophilizer manufactured by Bertis Corp for 2 days at −85° C. under 10 mm Torr, resulting in 350 g of a pale yellow dry cake. […] The solubility was tested by first adding 1 g of the dried extract into 1 ml of pure water at 25° C. with agitation for 5 min. If the extract was not completely dissolved (visual inspection), another 1 ml of water was added and the resulting mixture agitated for 5 minutes at 25° C. Next, the mixture was visually inspected to determine if the extract had completely dissolved. If not, water at 25° C. was added in 1 ml increments and agitated for 5 minutes after each addition of water until the extract was completely dissolved by visual inspection. .

solubility in methanol = type: physicochemical; conditions: organic solvent or mixture, 25° C.

solubility at 5 min [1]: ~1000 µg/mL (≈ 2.31 mM)
solubility (solubility in methanol): ~5000 µg/mL (≈ 11.6 mM)
SMILES: O=c1c(-c2ccc(O)cc2)coc2cc(O[C@@H]3O[C@H](CO)[C@@H](O)[C@H](O)[C@H]3O)cc(O)c12 [genistin]
